“And” between values parts separate entries of the source, which are not always exact repeats. Equal entries are not always repeated. Results filed as inconclusive are left out. The source made the active and inactive calls.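 How the source made its calls: active means fitted half-maximal concentration of signal decrease at or below twice the sample's top tested concentration; inconclusive means flat curve between -70 and -30 percent, or poor fit; inactive means flat within 30 percent, signal rise, or potency above limit.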

This experiment addresses T. gondii ME49Luc in IFN-y HeLa, luciferase, 72 h. Put plainly: inhibitors of Toxoplasma growth in IFN-γ-primed HeLa – cell-based, ME49Luc, luciferase, 72 h, dose response (AID 1259418).
Take `O=C(Nc1c(C(=O)NCc2cccnc2)[nH]c2ccccc12)c1ccc(Cl)cc1`: the AC50 was 21.2 µM. On to `O=C(CC1Nc2c3ccccc3nc(=S)n2C1=O)NCCN1CCN(c2cccc(Cl)c2)CC1` (configuration not stated), for which the AC50 is 37.1 µM. With `COc1cccc(CN2CCC3(COCc4cnc(-c5ccccc5)nc43)C2)c1` (configuration not stated), the AC50 is 17.4 µM. As to `CCc1cnc(N2[C@H](C#N)[C@H](c3ccc(-c4cccc(F)c4)cc3)[C@H]2CO)s1`, the AC50 was 21.3 µM.

As to `CN(C)CCNC(=O)c1ccc2onc(-c3coc(C4CC4)n3)c2c1`, the concentration at half-maximal activity (AC50) is 21.3 µM. The result for `O=C1c2cccc(O)c2C(=O)c2c(O)cc(CO)cc21` reads 16.6 µM. With `CC(C)C#Cc1ccc([C@H]2[C@@H](C#N)N(C(=O)c3cccc(F)c3)[C@@H]2CO)cc1`, the AC50 is 22 µM.

`Cc1ccc(S(=O)(=O)N2CCC3(CC2)NCCN=C3NCc2ccccc2Cl)cc1C`: the half-maximal activity concentration (AC50) is 12.2 µM. Take `Cc1ccc(S(=O)(=O)N2CCC3(CC2)NCCN=C3NCc2ccccc2F)cc1C`: the AC50 is 22.5 µM. On to `N#Cc1cccc(-c2ccc3c(c2)[C@@H]2[C@@H](CCN2S(=O)(=O)c2ccc(F)cc2)[C@H](CO)N3)c1`, for which the AC50 was 17.8 µM.

With `CCCCNC(=O)CCC1N=C2c3ccccc3N=C(SCc3ccc(F)cc3)N2C1=O` (configuration not stated), the AC50 was 24.8 µM. Consider `O=C(NC1CCCC1)N1CCCCN2[C@H](CO)[C@@H](c3ccc(-c4cccnc4)cc3)[C@H]2C1`, for which the AC50 is > 39 µM (inactive). The result for `O=C(CC1Nc2c3ccccc3nc(=S)n2C1=O)N1CCN(c2ccccc2F)CC1` (configuration not stated) reads 29.7 µM; that for `Cc1ccc(NC(=O)N2CCN(Cc3nc(-c4cccc(Cl)c4)oc3C)CC2)cc1`, > 39 µM (inactive); that for `COc1ccc(-c2nc(NCC3CCN(CCc4ccc(F)cc4)CC3)c3ccccc3n2)cc1`, 12.2 µM. Take `CCOc1ccc(NC(=O)CN2CCC3(CC2)N=C(c2ccc(Cl)cc2)C(=O)N3)cc1`: the AC50 was > 39 µM (inactive). With `COc1cc(NC(=O)Nc2ccc(-c3nc(-c4cc(C)ccc4C)co3)cc2)cc(OC)c1OC`, the AC50 is 14.5 µM.

`COc1ccc(N(Cc2nc(-c3ccc(C)cc3)oc2C)S(=O)(=O)c2ccccc2)cc1`: the AC50 is 15.2 µM.

Consider `Cn1ncnc1[C@H]1c2n[nH]c(=O)c3cc(F)cc(c23)N[C@@H]1c1ccc(F)cc1`, for which the AC50 was 38.6 µM. Regarding `Cc1ccc(-c2nc(CN3CCN(C(=O)NC4CCCC4)CC3)c(C)o2)cc1`, the AC50 is 20.9 µM. The figure for `Nc1ncnc2c1ncn2[C@@H]1O[C@H](C[C@@H](N)CC[C@H](N)C(=O)O)[C@@H](O)[C@H]1O` is 0.907 µM; for `O=S(=O)(c1ccc(Cl)s1)N1CCC2(CC1)NCCN=C2NCc1ccc2c(c1)OCO2` it is 34.8 µM. As for `OC[C@H]1[C@H](c2ccc(C#Cc3ccccc3F)cc2)[C@@H]2CN(CC3CCOCC3)CCCCN12`, the AC50 is 9.56 µM. `COc1cccc(CN2CCCCN3[C@@H](CO)[C@@H](c4ccc(-c5ccccc5OC)cc4)[C@@H]3C2)c1`: the AC50 is 16.4 µM and 13.4 µM. The result for `Cc1ccccc1-c1ccc([C@H]2[C@@H](CO)N3CCCCN(S(=O)(=O)Cc4ccccc4)C[C@H]23)cc1` reads 17.6 µM and 13.3 µM; that for `COc1ccc(-c2nc3c(s2)CN(C(=O)Nc2cccc(C)c2)CC3)cc1OC`, > 39 µM (inactive); that for `CC(C)Cc1ccc(S(=O)(=O)N2CCC3(CC2)NCCN=C3NCc2cccc(F)c2)cc1`, 5.25 µM. The result for `C=CCN1CCC2(CC1)CC(NCc1ccc(C)s1)c1ccccc1O2` (configuration not stated) reads 12.1 µM; that for `O=C(c1ccc(F)cc1)N1CC(=O)N2[C@H](C1)[C@H](c1ccc(C#CCC3CCCC3)cc1)[C@@H]2CO`, 10.6 µM. With `N#Cc1cccc(-c2ccc([C@@H]3[C@H]4CN(Cc5ccccc5F)CCCCN4[C@H]3CO)cc2)c1`, the AC50 was 16.5 µM. As for `Cc1ccccc1Cn1c(CN2CCC(C(=O)NCCCN3CCCC3=O)CC2)cc2ccccc21`, the AC50 was > 39 µM (inactive). Regarding `O=C(Cc1ccncc1)N1CCCCN2[C@@H](CO)[C@H](c3ccc(C#Cc4ccccc4F)cc3)[C@@H]2C1`, the AC50 was 13.5 µM and 17.9 µM.

By AC50 is commonly meant the concentration at which the activity in the assay is half-maximal.

Source of the values: PubChem BioAssay AID1259418 (Broad Institute, 2018).
